Data from PubChem BioAssay (NCI).
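GI50: concentration for 50% inhibition of growth. TGI: concentration producing complete growth inhibition.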

Columns and labels:
Test in all cases: NCI anticancer screen, dose series, 384-well format
[1] = system: NCI-H322M lung
[2] = system: HOP-92 NSCLC
[3] = system: SK-MEL-28 melanoma
[4] = system: IGROV1 ovarian
[5] = system: MDA-MB-435 melanoma
[6] = system: SN12C renal
[7] = system: RXF 393 renal
[8] = system: TK-10 renal
[9] = system: HS 578T breast
[10] = system: SF-295 CNS
[11] = system: NCI-H23 lung
[12] = system: NCI-H226 lung
[13] = system: UACC-257 melanoma
[14] = system: M14 melanoma
[15] = system: LOX IMVI melanoma
[16] = system: RPMI-8226 leukemia
[17] = system: MOLT-4 leukemia
[18] = system: SF-268 CNS
[19] = system: SR leukemia
[20] = system: NCI/ADR-RES ovarian
[21] = system: SK-MEL-5 melanoma
[22] = system: U251 glioblastoma
[23] = system: 786-0 renal
[24] = system: A549 NSCLC
[25] = system: CCRF-CEM leukemia
[26] = system: CAKI-1 renal
[27] = system: OVCAR-8 ovarian
[28] = system: NCI-H460 NSCLC
[29] = system: MDA-MB-468 breast
[30] = system: HT29 colon
[31] = system: K-562 leukemia
[32] = system: BT-549 breast
[33] = system: HCC-2998 colon
[34] = system: SF-539 CNS
[35] = system: HCT-15 colon
[36] = system: ACHN renal
[37] = system: COLO 205 colon
[38] = system: OVCAR-3 ovarian
[39] = system: MALME-3M melanoma
[40] = system: MDA-MB-231 breast
[41] = system: EKVX NSCLC
[42] = system: HL-60(TB) leukemia
[43] = system: UACC-62 melanoma
[44] = system: HCT-116 colon
[45] = system: SK-OV-3 ovarian
[46] = system: MCF7 breast
[47] = system: KM12 colon
[48] = system: A498 renal
[49] = system: SW-620 colon
[50] = system: HOP-62 NSCLC
[51] = system: NCI-H522 lung
[52] = system: DU-145 prostate
[53] = system: UO-31 renal
[54] = system: SNB-19 CNS
[55] = system: OVCAR-4 ovarian
[56] = system: PC-3 prostate
[57] = system: T-47D breast
[58] = system: SNB-75 CNS

C[C@H](Nc1ncnc2nc[nH]c12)c1cc2ccc(F)cc2nc1-c1ccccn1
GI50 [1]: > 100 µM | TGI [1]: > 100 µM | GI50 [2]: 12.7 µM | TGI [2]: > 100 µM | GI50 [3]: > 100 µM | TGI [3]: > 100 µM | GI50 [4]: 21.2 µM | TGI [4]: 93.2 µM | GI50 [5]: > 100 µM | TGI [5]: > 100 µM | GI50 [6]: 12.4 µM | TGI [6]: > 100 µM | GI50 [7]: 12.6 µM | TGI [7]: > 100 µM | GI50 [8]: > 100 µM | TGI [8]: > 100 µM | GI50 [9]: 24.7 µM | TGI [9]: > 100 µM | GI50 [10]: 29.4 µM | TGI [10]: > 100 µM | GI50 [11]: > 100 µM | TGI [11]: > 100 µM | GI50 [12]: 35.7 µM | TGI [12]: > 100 µM | GI50 [13]: > 100 µM | TGI [13]: > 100 µM | GI50 [14]: > 100 µM | TGI [14]: > 100 µM | GI50 [15]: > 100 µM | TGI [15]: > 100 µM | GI50 [16]: 22.4 µM | TGI [16]: > 100 µM | GI50 [17]: 23.3 µM | TGI [17]: > 100 µM | GI50 [18]: > 100 µM | TGI [18]: > 100 µM | GI50 [19]: 1.06 µM | TGI [19]: 8.99 µM | GI50 [20]: > 100 µM | TGI [20]: > 100 µM | GI50 [21]: > 100 µM | TGI [21]: > 100 µM | GI50 [22]: > 100 µM | TGI [22]: > 100 µM | GI50 [23]: 30.4 µM | TGI [23]: > 100 µM | GI50 [24]: > 100 µM | TGI [24]: > 100 µM | GI50 [25]: 11 µM | TGI [25]: > 100 µM | GI50 [26]: 8.35 µM | TGI [26]: 54.1 µM | GI50 [27]: > 100 µM | TGI [27]: > 100 µM | GI50 [28]: > 100 µM | TGI [28]: > 100 µM | GI50 [29]: 59.2 µM | TGI [29]: > 100 µM | GI50 [30]: > 100 µM | TGI [30]: > 100 µM | GI50 [31]: > 100 µM | TGI [31]: > 100 µM | GI50 [32]: 21.1 µM | TGI [32]: > 100 µM | GI50 [33]: > 100 µM | TGI [33]: > 100 µM | GI50 [34]: > 100 µM | TGI [34]: > 100 µM | GI50 [35]: > 100 µM | TGI [35]: > 100 µM | GI50 [36]: 96.1 µM | TGI [36]: > 100 µM | GI50 [37]: > 100 µM | TGI [37]: > 100 µM | GI50 [38]: 34.7 µM | TGI [38]: > 100 µM | GI50 [39]: 23.6 µM | TGI [39]: > 100 µM | GI50 [40]: 53 µM | TGI [40]: > 100 µM | GI50 [41]: 37.6 µM | TGI [41]: > 100 µM | GI50 [42]: 3.53 µM | TGI [42]: 24.3 µM | GI50 [43]: 29.2 µM | TGI [43]: > 100 µM | GI50 [44]: > 100 µM | TGI [44]: > 100 µM | GI50 [45]: 64.3 µM | TGI [45]: > 100 µM | GI50 [46]: 21 µM | TGI [46]: > 100 µM | GI50 [47]: > 100 µM | TGI [47]: > 100 µM | GI50 [48]: 17.5 µM | TGI [48]: > 100 µM | GI50 [49]: > 100 µM | TGI [49]: > 100 µM | GI50 [50]: > 100 µM | TGI [50]: > 100 µM | GI50 [51]: 67.4 µM | TGI [51]: > 100 µM | GI50 [52]: > 100 µM | TGI [52]: > 100 µM | GI50 [53]: 49.9 µM | TGI [53]: > 100 µM | GI50 [54]: > 100 µM | TGI [54]: > 100 µM | GI50 [55]: > 100 µM | TGI [55]: > 100 µM | GI50 [56]: 18.2 µM | TGI [56]: > 100 µM | GI50 [57]: 31.2 µM | TGI [57]: > 100 µM | GI50 [58]: 24.3 µM | TGI [58]: > 100 µM
